{"source": "patent US8557858B2", "about": "“(E)-N-(2-amino-phenyl)-3-{1-[4-(l-methyl-1H-pyrazol-4-yl)-benzenesulfonyl]-1H-pyrrol-3-yl}-acrylamide salts” (4SC AG, priority 2008, dated 2013)", "format_in_all_cases": "physicochemical", "conditions_in_all_cases": "compared to the known hydrochloride salt", "key": {"[1]": {"experiment": "Dissolution behavior / dissolution velocity of the salts"}, "Solubility of the salt": {"experiment": "Solubility of the salt"}, "Stability of the salts": {"experiment": "Stability of the salts"}}}
{"smiles": "Cc1ccc(S(=O)(=O)O)cc1.Cn1cc(-c2ccc(S(=O)(=O)n3ccc(/C=C/C(=O)Nc4ccccc4N)c3)cc2)cn1", "note": "[toluenesulfonate salt, (E)-N-(2-Amino-phenyl)-3-{1-[4-(1-methyl-1H-pyrazol-4-yl)-benzenesulfonyl]-H-pyrrol-3-yl}-acrylamide toluene-4-sulfonate]", "values": [{"measurement": "dissolution velocity", "setting": "[1]", "value": "particularly high"}, {"measurement": "solubility", "setting": "Solubility of the salt", "value": "high"}, {"measurement": "stability", "setting": "Stability of the salts", "value": "enhanced"}]}
